Values after ≈ are worked out from the molar mass of the structure shown.
Legend:
Hela S3 cultured cells = assay: Effects upon Hela S3 cultured cells; type: cell-based; conditions: Homo sapiens, HeLa S3, 72 h
Protocol: Table 3 indicates the effects of typical Compounds (I) against Hela S3 culture cells. In this table, IC50 denotes the concentration of the test compound capable of reducing the number of cells to 50% the number of untreated cells.
Cultured cells of Hela S3 were added to a MEM medium containing 10% (V/V) of bovine fetal serum and […] of glutamine to obtain a cell suspension of 3×10^4 cells/ml. The cell suspension was poured into each well (1 ml/well) of a 24 well-multiplate for culturing at 37° C. in an incubator containing carbon dioxide (5%) and air (95%). After 24 hours, samples were dissolved or suspended in PBS, ethanol or dimethylsulfoxide and added to the medium at different concentrations, followed by culturing at 37° C. for 72 hours in the same incubator. An aspirator was used to collect the medium from each well. The surface of each medium was washed by adding PBS (1 ml) gently, and then PBS was sucked out. PBS containing trypsin (0.05%) and EDTA (0.02%) was poured into each well. After pipetting, the number of cells in each suspension was counted by the use of a microcell counter (commercial product of Toa Iyo Denshi K.K., Japan). By reference to a curve showing the concentration vs. the number of cells, the IC50 (concentration of sample capable of reducing the number of cells to 50% of the number of control untreated cells) was measured.

in vivo [1] = conditions: mouse, ip, single abdominal administration, ddy mice, 14 days, Behrens-Korber's method
Source text: (§1) In this table, C.I. denotes chemotherapeutic index, calculated as C.I.=(LD50)/(ED50), wherein LD50 denotes the value of acute toxicity, and ED50 denotes the dose of a sample which is capable of reducing the volume of Sarcoma 180 solid tumour to 50% of the corresponding volume of the solid tumour of untreated group.
(§2) The test compound was abdominally administered once to ddy mice, each group consisting of 5 animals.

Sarcoma 180 solid tumour = type: in vivo, ddy mouse; conditions: C.I.=(LD50)/(ED50), ED50 = dose at T/C=0.5, i.v. (tail vein), 7 days
Source text: as §1, §2
(§3) 5×10^6 cells of Sarcoma 180 solid tumour were abdominally implanted into a ddy mouse. 7 days after this, the cells were collected from the ascites fluid. The cells were washed once with physiological saline under sterile conditions and suspended in physiological saline to obtain a cell suspension containing 5×10^7 cells/ml of which 0.1 ml was implanted into a ddy male mouse (body weight 20±2 g) under the skin of the right armpit. The test compound was dissolved in physiological saline or the same solution containing Tween 80. 24 hours after implantation of the tumour cells, 0.1-0.2 ml of the solution containing the test compound was administered to the tail vein of each animal in the test group consisting of 5 animals. 7 days after the implantation, the major axis (a) and minor axis (b) of the tumour were measured to calculate the volume of the tumour as "a"×"b^2 "/2. The antitumour effect was indicated by T/C which is the ratio of the tumour volume in the test animals to the corresponding volume of the control (untreated) animals.
(§4) T/C ratios and the dose were respectively plotted on the ordinate using an arithmetic scale and on the abscissa using a logarithmic scale, the relationship between the dosage and the T/C ratio being converted to a straight line by the least squares method. From the straight tropic line thus-obtained, the dosage corresponding to a T/C=0.5 viz. ED50 was determined.

in vivo [2] = assay: in vivo; set-up: species or system mice (ddy strain); conditions: mouse, ip, ratio of dose reducing peripheral leucocytes to 4000 (per mm^3; i.p., 4 days) to ED50 (Sarcoma 180), read-out: (WBC4000)/(ED50)
Source text: as §1, §3, §4
Sarcoma 180 solid tumour cells (5×10^6) were subcutaneously implanted under the skin of the right armpit of each mouse (body weight 20±2 g) of a group consisting of 5 male mice (ddy strain). 24 hours after this, a test compound was intraperitoneally administered to each animal. 4 days later, blood (0.02 ml) was collected from the suborbital plexus vein of each tumour-carrying animal. The collected sample of blood was dispersed in 9.98 ml of Cellkit Seven solution. One drop of saponin solution was added to the sample to dissolve erythrocytes and then a microcell counter was used to measure the number of leucocytes. On graph paper, the number of leucocytes was plotted on the ordinate using an arithmetic scale, and the dosage was plotted on the abscissa using a logarithmic scale to show the relationship of the dosage to the number of peripheral leucocytes, from which the value of WBC4000 viz. a value capable of giving 4000 peripheral leucocytes per mm^3 (about half of the corresponding value in normal mice) was obtained.

CO[C@@]12[C@H](COC(N)=O)c3c(O)c(N=NC4=NCCN4)c(C)c(O)c3N1C[C@@H]1N[C@@H]12 [Example 23, [1aS-(1aα,8β, 8aα,8bα)]-8-{[(aminocarbonyl)oxy]methyl}-4,7-dihydroxy-1,1a,2,8,8a,8b-hexahydro-6[(2"- imidazolinyl)azo]-8a-methoxy-5-methyl-azirino[2',3':3,4]pyrrolo[1,2-a]indol]
IC50 (Hela S3 cultured cells): 0.162 µg/mL (≈ 0.388 µM)
LD50 at 336 h (in vivo [1]): > 100 mg/kg
C.I. (chemotherapeutic index) (Sarcoma 180 solid tumour): > 0.6
selectivity ratio (in vivo [2]): 0.5

— US4791113A, “Mitomycin derivatives as antileukemia agents” (Kyowa Hakko Kogyo Kabushiki Kaisha, priority 1986, dated 1988)
